The results in this text go back to US9156824B2, “CDC7 inhibitors” (Eli Lilly and Company, priority 2013, dated 2015).

What is called IC50 is the concentration that gives 50% inhibition.

Data set [1] is described as follows: Antitumor efficacy in human colorectal carcinoma SW620 mouse xenograft model. The class given is in vivo. The note with it: female, athymic Balb/c nude, mouse, in vivo, po; BID orally for 2 weeks, tumor-bearing nude mice; read-out: maximum tolerated dose. The procedure: (§1) The in vivo anticancer activity of Example 4 is studied in human colorectal adenocarcinoma cell line SW620 mouse xenograft tumor model which is predicted to be sensitive based on in vitro cell counting proliferative assay data described above. The SW620 cell line is obtained from American Type Culture Collection (ATCC) and is cultured in Leibovitz's L-15 Medium with 10% fetal bovine serum following ATCC instructions. SW620 cell suspension (5.0×10^6/0.2 mL) is injected subcutaneously to the right flank of each female athymic Balb/c nude mice. The mice (5-6 weeks old at arrival) are obtained from Shanghai Sippr-bk Laboratory Animals Ltd. Upon receipt and throughout the study, the animals are housed 5 animals per cage in appropriately sized solid-bottom cages with contact bedding Animals are acclimated for 7 days prior to implantation of the SW620 cells. Animals are fed with Shanghai Laboratory Animal Center certified Rodent Diet with 23% Protein ad libitum and autoclaved tap water is provided ad libitum. The animal room is maintained on a 12-hour light/dark cycle. When the tumor volume reaches an average of 154.9 mm^3 (9 days post tumor implantation), the tumor bearing animals are randomly grouped into 9 groups (8 animals/group) with similar mean tumor volume and body weight. The average body weight of the tumor-bearing mice is 17.3 g. The compound is formulated in HEC 1% w/v, P80 0.25% v/v, and antifoam 1520-US 0.025% v/v in deionized water by probe sonication for 15 minutes on ice and compound formulation is prepared daily for animal dosing. The formulated compound is administered at 10.4, 20.8 and 31.2 mg/kg doses (containing 10, 20 and 30 mg/kg active pharmaceutical ingredient API, respectively) twice a day (BID) by oral gavage (0.1 mL/20 g) for 2 weeks. The BID dosing is performed about 8 hours apart (approximately 9 am and 5 pm each day). The vehicle is also given BID as the control arm of the study. Tumor volume and body weight are measured 3 times a week in a blinded manner. Tumor volume is determined by caliper measurements (mm) and using the formula for an ellipsoid sphere: tumor volume (mm^3)=length×width^2/2, where length and width refer to the larger and smaller perpendicular dimensions collected at each measurement. The animal behavior and animal health are monitored twice a day during dosing period. The study is terminated on day 28 post treatment initiation.
(§2) The statistical analysis of the tumor volume data begins with a data transformation to a log scale to equalize variance across time and treatment groups. The log volume data are analyzed with a two-way repeated measures analysis of variance by time and treatment using the MIXED procedures in SAS software (Version 9.3). The correlation model for the repeated measures is Spatial Power. Treated groups are compared to the control group at each time point. The MIXED procedure is also used separately for each treatment group to calculate adjusted means and standard errors at each time point. Both analyses account for the autocorrelation within each animal and the loss of data that occurs when animals with large tumors are removed from the study early. The adjusted means and standard errors are plotted for each treatment group versus time. The analysis comparing the treated groups to the control groups at each time point uses the log 10 tumor volumes and produces the p-values. For statistical significance of p-values shown, “***”=P<0.001.
(§3) If T>T0, the Delta T/C, % calculation is used. […]
(Xenograft models place foreign cells or tissue in a host animal.)

A further data set deals with SW620 xenograft tumors. The description is as above. The note with it: for % T/C day 16: SW620 xenograft. It counts as in vivo. Here is the method: as §1, §2, §3
Data set [2] relates to phosphorylated MCM2 at Serine 53 (pMCM2-S53) in H1299 cells. Kind of data set: Acumen imaging assay for detection of phosphorylated MCM2 in H1299 cells. It counts as cell-based. As to conditions: 4 hours treatment, Hydrate, read-out: IC50, inhibition of pMCM2-S53. The procedure:
The Acumen® eX3 is used to determine the effect of compounds on the formation of endogenous phosphorylated MCM2 at Serine 53 (pMCM2-S53). Phosphorylation of MCM2 by CDC7 is determined using specific anti-pMCM2-S53 antibody and quantified with fluorescent tagged secondary antibodies by Acumen® eX3 to monitor CDC7 activity in cells. Phosphorylation of MCM2 at Serine 53 is known to be correlated to CDC7 inhibition.
H1299 cells (ATCC #CRL-5803) are maintained in RPMI-1640 (Hyclone SH30809.01) growth medium supplemented with 10% FBS. Cells are harvested using standard cell culture procedures and then counted using Vi-Cell XR Cell Viability Analyzer (Beckman Counter). 3000-6000 H1299 cells in 100 μL of growth medium are plated into each well of Biocoat Poly-D-Lysine 96-well black/clear plate with flat bottom BioCoat™ Multiwell (Becton Dickinson) cell culture plates 356640 and incubated overnight at 37° C., 5% CO2.
Cells are treated with the test compound (50 μL/well) diluted in medium containing 0.6% DMSO and incubated for 4 hours at 37° C. To each well is added 7.4% formaldehyde (150 μL) diluted with PBS from 37% formaldehyde stock and the plates are incubated at room temperature for 30 minutes. Formaldehyde is removed and cold methanol (100 μL) is added. The plates are incubated for 20 minutes at 4° C. to permeabilize the cells. Plates are washed 3× with 100 μL/well of PBS. […] The plates are sealed with black seal and are read on the Acumen® eX3 (TTP LABTECH) using optical filter 500-530 nanometer and 575-640 nanometer for Alexa Fluor 488 and propidium iodide, respectively. The number of pMCM2-S53 positive cells is normalized to total cells for each well and are calculated as percent inhibition relative to on-plate controls. […]

Marks after values point to notes of the source that are not given here.

`CC1(c2ncncc2F)NC(=O)c2cc(-c3cn[nH]c3)ccc21` (single isomer, unassigned; isomer 2) [Example 4, 3-(5-Fluoropyrimidin-4-yl)-3-methyl-6-(1H-pyrazol-4-yl)isoindolin-1-one, Isomer 2, Hydrate]: in data set [1], the MTD at 2 weeks was 31.2 mg/kg. Moreover, the “% T/C day 16” value with SW620 xenograft tumors (10.4 mg/kg BID × 14, orally) was 26.1*** %; in the data set on SW620 xenograft tumors (20.8 mg/kg BID × 14, orally), 5.7*** %; in the data set on SW620 xenograft tumors (31.2 mg/kg BID × 14, orally, negative value = regression), −66.1*** %. Moreover, the “tumor growth after dosing cessation” value in the data set with SW620 xenograft tumors (31.2 mg/kg BID, 2 weeks after dosing cessation) was “no significant tumor growth”. In addition, in data set [2], the IC50 was determined as 0.29 µM.
